# Read-outs that look alike come from different tables or passages of the source.
# Key:
# [1] = test system: Vero cell lines; experiment: Cell viability of Vero cells in the SARS-CoV-2 inhibition experiment (Example 2)
# [2] = test system: SARS-CoV-2; experiment: microbe, parasite or virus in culture; type: cell-based; conditions: Severe acute respiratory syndrome coronavirus 2, Vero, read-out: SARS-CoV-2 virus 50% inhibitory ability (IC50 value)
# [3] = test system: SARS-CoV-2; experiment: microbe, parasite or virus in culture; type: cell-based
# [4] = in vitro; conditions: African green monkey
smiles,measurement,setting,value
"COc1cc2cc3c(c(-c4cc5c(cc4O)OCO5)c2cc1OC)C(=O)OC3 [6′ hydroxyl justicidin-B, 9-(6-hydroxy-benzo[1,3]dioxol-5-yl)-6,7-dimethoxy-3H-naphtho[2,3-c]furan-1-one]","Cell viability (%, average ± standard deviation)",[1]; concentration 0.10 uM,100.66 ± 0.73%
same,"Cell viability (%, average ± standard deviation)",[1]; concentration 0.20 uM,104.63 ± 0.44%
same,"Cell viability (%, average ± standard deviation)",[1]; concentration 0.39 uM,105.17 ± 0.85%
same,"Cell viability (%, average ± standard deviation)",[1]; concentration 1.56 uM,107.86 ± 0.60%
same,"Cell viability (%, average ± standard deviation)",[1]; concentration 3.13 uM,105.46 ± 0.38%
same,"Cell viability (%, average ± standard deviation)",[1]; concentration 6.25 uM,103.44 ± 1.31%
same,"Cell viability (%, average ± standard deviation)",[1]; concentration 12.5 uM,101.11 ± 0.36%
same,"Cell viability (%, average ± standard deviation)",[1]; concentration 25 uM,97.80 ± 1.29%
same,"Cell viability (%, average ± standard deviation)",[1]; concentration 50 uM,93.38 ± 0.72%
same,IC50,[2],50 nM
same,IC50,"[3]; Severe acute respiratory syndrome coronavirus 2, Vero, 24 h, read-out: SARS-CoV-2 virus 50% inhibitory ability (IC50 value)",1060 nM
same,inhibition at 0.1 µM,"[3]; Severe acute respiratory syndrome coronavirus 2, concentration 0.10 uM, Vero cells, 24 h, read-out: SARS-CoV-2 virus inhibitory ability (%, average ± standard deviation)",1.45 ± 1.16%
same,inhibition at 0.2 µM,"[3]; Severe acute respiratory syndrome coronavirus 2, concentration 0.20 uM, Vero cells, 24 h, read-out: SARS-CoV-2 virus inhibitory ability (%, average ± standard deviation)",-1.71 ± 4.34%
same,inhibition at 0.39 µM,"[3]; Severe acute respiratory syndrome coronavirus 2, concentration 0.39 uM, Vero cells, 24 h, read-out: SARS-CoV-2 virus inhibitory ability (%, average ± standard deviation)",3.39 ± 3.95%
same,inhibition at […],"[3]; Severe acute respiratory syndrome coronavirus 2, concentration 0.78 uM, Vero cells, 24 h, read-out: SARS-CoV-2 virus inhibitory ability (%, average ± standard deviation)",35.6 ± 0.69%
same,inhibition at 1.56 µM,"[3]; Severe acute respiratory syndrome coronavirus 2, concentration 1.56 uM, Vero cells, 24 h, read-out: SARS-CoV-2 virus inhibitory ability (%, average ± standard deviation)",68.6 ± 3.12%
same,inhibition at 3.13 µM,"[3]; Severe acute respiratory syndrome coronavirus 2, concentration 3.13 uM, Vero cells, 24 h, read-out: SARS-CoV-2 virus inhibitory ability (%, average ± standard deviation)",95.86 ± 0.86%
same,inhibition at 6.25 µM,"[3]; Severe acute respiratory syndrome coronavirus 2, concentration 6.25 uM, Vero cells, 24 h, read-out: SARS-CoV-2 virus inhibitory ability (%, average ± standard deviation)",99.74 ± 0.24%
same,inhibition at 12.5 µM,"[3]; Severe acute respiratory syndrome coronavirus 2, concentration 12.5 uM, Vero cells, 24 h, read-out: SARS-CoV-2 virus inhibitory ability (%, average ± standard deviation)",98.9 ± 1.49%
same,inhibition at 25 µM,"[3]; Severe acute respiratory syndrome coronavirus 2, concentration 25 uM, Vero cells, 24 h, read-out: SARS-CoV-2 virus inhibitory ability (%, average ± standard deviation)",99.79 ± 0.6%
same,inhibition at 50 µM,"[3]; Severe acute respiratory syndrome coronavirus 2, concentration 50 uM, Vero cells, 24 h, read-out: SARS-CoV-2 virus inhibitory ability (%, average ± standard deviation)",97.8 ± 2.47%
same,SARS-CoV-2 inhibitory ability (in words),"[3]; Vero cells, comparison at IC50 values with Remdesivir, Lopinavir and Chloroquine",remarkably more excellent
same,CC50,[4],314000 nM
